The results in this text go back to ChEMBL document CHEMBL4627301, “Discovery of novel hydroxyamidine derivatives as indoleamine 2,3-dioxygenase 1 inhibitors with in vivo anti-tumor efficacy” (Bioorg Med Chem Lett, 2020).

Calls of active or inactive are those of the source. No cut-off for these calls is given here.

In series [1] the target is T1, Indoleamine 2,3-dioxygenase 1 (Homo sapiens, UniProt P14902). The series can be described thus: Inhibition of IDO1 (unknown origin) assessed as reduction in kynurenine formation using L-tryptophan as substrate incubated for 60 mins by fluorescence based assay.
Series [2] addresses T1, Indoleamine 2,3-dioxygenase 1. The series can be described thus: Inhibition of IDO1 in IFN-gamma stimulated human HeLa cells assessed as reduction in kynurenine formation using L-tryptophan as substrate incubated for 24 hrs by UV-spectrophotometry. It counts as cell-based.
The subject of series [3] is Lewis lung carcinoma cell line. The experiment in a line: Antitumor activity against mouse LLC cells xenografted in C57BL/6 mouse assessed as tumor growth inhibition at 100 mg/kg, po administered bid for 14 days and measured for 14 days. The format is functional, organism-based.
Series [4] in a line: Toxicity in C57BL/6 mouse xenografted with mouse LLC cells assessed as body weight loss at 100 mg/kg, po administered bid for 14 days and measured for 14 days. As to conditions: in vivo, 336 h. It counts as organism-based, Lewis lung carcinoma.

T1 sequence (P14902 whole entry): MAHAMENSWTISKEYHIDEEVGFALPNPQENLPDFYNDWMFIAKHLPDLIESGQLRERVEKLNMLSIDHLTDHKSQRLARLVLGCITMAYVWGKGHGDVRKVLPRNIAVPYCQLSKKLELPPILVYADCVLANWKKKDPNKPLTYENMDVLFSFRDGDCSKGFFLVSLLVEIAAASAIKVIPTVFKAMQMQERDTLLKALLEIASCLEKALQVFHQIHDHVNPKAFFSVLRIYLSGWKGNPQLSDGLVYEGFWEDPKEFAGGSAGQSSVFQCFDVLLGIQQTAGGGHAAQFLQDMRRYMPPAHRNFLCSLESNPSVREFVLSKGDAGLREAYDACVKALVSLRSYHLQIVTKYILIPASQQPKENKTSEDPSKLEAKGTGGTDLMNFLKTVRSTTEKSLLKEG

What is called IC50 is the concentration at which inhibition is half-maximal. The EC50 is the concentration at which the effect is half-maximal. Turning to `NS(=O)(=O)CCNc1nonc1/C(=N/O)Nc1ccc(F)c(Br)c1`, the IC50 in series [1] is 71 nM. Also, in series [2], the EC50 is 11 nM. Also, the TGI result in series [3] was “Active”. Also, the Activity entry in series [4] is “Non-Toxic”.
For the compound `C#CCNS(=O)(=O)CCNc1nonc1/C(=N/O)Nc1ccc(F)c(Br)c1`, the IC50 in series [1] was 218 nM. Besides, the EC50 in series [2] came to 33 nM.
As to `O=S(=O)(CCNc1nonc1/C(=N/O)Nc1ccc(F)c(Br)c1)N1CCC1`, the IC50 in series [1] was determined as 191 nM. The EC50 in series [2] was found to be 143 nM.
In the same order, the values of `CN(C)S(=O)(=O)CCCNc1nonc1/C(=N/O)Nc1ccc(F)c(Br)c1` are 97 nM and 20 nM.
In the same order, the values of `N#CN=S1CC(Nc2nonc2/C(=N/O)Nc2ccc(F)c(Br)c2)C1` (stereo unspecified) are 69 nM and 73 nM.
In the same order, the values of `CS(=O)(=O)NNc1nonc1/C(=N/O)Nc1ccc(F)c(Br)c1` are 609 nM and over 800 nM.
As for `[O-][S+]1CC(Nc2nonc2/C(=N/O)Nc2ccc(F)c(Br)c2)C1` (stereo unspecified), in series [1], the IC50 turned out to be 212 nM. In addition, the EC50 in series [2] turned out to be 79 nM.
In the same order, the values of `NS(=O)(=O)CCCNc1nonc1/C(=N/O)Nc1ccc(F)c(Br)c1` are 126 nM and 15 nM.
For `NS(=O)(=O)CCONc1nonc1/C(=N/O)Nc1ccc(F)c(Br)c1`, the IC50 in series [1] worked out at 87 nM. Moreover, the EC50 in series [2] came to 27 nM.
For `N=S1(=O)CC(Nc2nonc2/C(=N/O)Nc2ccc(F)c(Br)c2)C1` (stereo unspecified), in that order: 208 nM and 53 nM.
Consider `CN(C)S(=O)(=O)CCNc1nonc1/C(=N/O)Nc1ccc(F)c(Br)c1`, for which the IC50 in series [1] is 105 nM. Also, the EC50 in series [2] was 17 nM.
On to `NS(=O)(=O)NCCNc1nonc1/C(=N/O)Nc1ccc(F)c(Br)c1`, for which the TGI result in series [3] was “Active”.
As for `NNc1nonc1/C(=N/O)Nc1ccc(F)c(Br)c1`, the 50% inhibitory concentration (IC50) in series [1] stood at 108 nM. In addition, the EC50 in series [2] is 556 nM.
Consider `NS(=O)(=O)NNc1nonc1/C(=N/O)Nc1ccc(F)c(Br)c1`, for which the IC50 in series [1] worked out at 218 nM. In series [2], the EC50 was 101 nM.
As to `O=S(=O)(CCNc1nonc1/C(=N/O)Nc1ccc(F)c(Br)c1)NCC(F)(F)F`, in series [1], the IC50 was found to be 140 nM. The concentration for a half-maximal effect (EC50) in series [2] worked out at 268 nM.
For `O=S(=O)(CCNc1nonc1/C(=N/O)Nc1ccc(F)c(Br)c1)NCC1CC1`, in that order: 312 nM and 268 nM.
For the compound `O=S(=O)(CCNc1nonc1/C(=N/O)Nc1ccc(F)c(Br)c1)NO`, the IC50 in series [1] came out at 126 nM. The EC50 in series [2] was over 800 nM.
For `CCNS(=O)(=O)CCNc1nonc1/C(=N/O)Nc1ccc(F)c(Br)c1`, in that order: 95 nM and 41 nM.
For `NNS(=O)(=O)CCNc1nonc1/C(=N/O)Nc1ccc(F)c(Br)c1`, in that order: 135 nM and over 800 nM.
Turning to `O=S1(=O)CC(Nc2nonc2/C(=N/O)Nc2ccc(F)c(Br)c2)C1`, the IC50 in series [1] was found to be 99 nM. Moreover, the EC50 in series [2] is 59 nM.
